According to patent publication US12129312B2, “Peptide compound, application thereof and composition containing same” (priority 2017, dated 2024):
Read-outs that look alike come from different tables or passages of the source. Square brackets hold non-standard residues; d marks the D form. Peptide text beside a SMILES is read from it. * marks the point of attachment. PEG8 = NCCOCCOCCOCCOCCOCCOCCOCCOCCC(=O)O; 2Nal = N[C@@H](Cc1ccc2ccccc2c1)C(=O)O; Palmitoyl = CCCCCCCCCCCCCCCC(=O)*; Tic = O=C(O)[C@@H]1Cc2ccccc2CN1; NMeL = CN[C@@H](CC(C)C)C(=O)O; Thz = O=C(O)[C@@H]1CSCN1

Columns and labels:
[1] = target: T1, human Chemokine like receptor 1 (Homo sapiens, UniProt Q99788); test: Activation of Tango CMKLR1-bla U2OS cells (beta-lactamase FRET reporter); format: cell-based
T1 construct: host or cells: U2OS (Tango CMKLR1-bla U2OS)
T1 sequence (Q99788 1-373): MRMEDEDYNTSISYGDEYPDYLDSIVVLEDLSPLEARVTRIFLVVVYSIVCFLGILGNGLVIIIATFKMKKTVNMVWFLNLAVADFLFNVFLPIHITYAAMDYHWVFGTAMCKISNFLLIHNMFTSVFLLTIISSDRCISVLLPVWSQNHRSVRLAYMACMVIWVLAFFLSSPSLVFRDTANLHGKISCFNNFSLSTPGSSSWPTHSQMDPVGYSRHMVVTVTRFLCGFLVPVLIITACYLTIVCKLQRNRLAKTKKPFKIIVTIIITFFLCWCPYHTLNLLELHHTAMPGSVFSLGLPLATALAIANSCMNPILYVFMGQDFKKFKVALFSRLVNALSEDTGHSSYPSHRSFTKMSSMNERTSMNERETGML
In short: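 Agonist mode in Tango CMKLR1-bla U2OS cells, 10000 cells/well seeded overnight, then 10-point 3-fold compound dilutions from 10 mM DMSO stock applied for 4 h at 37 °C, 5% CO2. Beta-lactamase reporter read with CCF4-AM FRET substrate; peptide (D-Tyr)-Phe-Leu-Pro-(D-Ser)-Gln-Phe-(D-Ala)-Tic-Ser served as positive control.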

[2] = Plasma stability, human plasma; format: in vitro ADME; details: 37° C., time points 0 minute, 1, 2 and 4 hours, LC-MS/MS, read-out: Human plasma (T1/2 (h)) (converted)
Protocol: (§1) 1. Preparation of 50 mM Phosphate Buffer (50 mM Sodium Phosphate and 70 mM NaCl):
(§2) 5.750 g of Na2HPO4, 1.141 g of NaH2PO4 and 4.095 g of NaCl (Shanghai Titan) were weighed and dissolved in 1000 mL of ultrapure water and the pH was adjusted to 7.4. The prepared phosphate buffer was stored in the refrigerator at 4° C., valid for one week.
(§3) 2. Preparation of Compound Stock Solution:
(§4) 1) 5 mg/mL test compound: 5 mg of compound was weighed and dissolved in 1 mL of DMSO.
(§5) 2) 20 mM control: 2.728 mg of nococaine was dissolved in 0.5 mL of DMSO. 3.878 mg of fenfluramide was dissolved in 0.5 mL of DMSO (Amresco).
(§6) 3. Preparation of Experimental Plasma:
(§7) The frozen plasma (human: Shanghai ChemPartner, Rat, Mouse: Shanghai Xipuer-Beikai, Dog, Monkey: Suzhou Xishan Zhongke) was taken out from the −80° C. refrigerator, immediately placed in a 37° C. water bath, and thawn with gentle shaking. The thawed plasma was poured into a centrifuge tube, and centrifuged at 3000 rpm for 8 minutes. The supernatant was collected for the experiment. The pH of the plasma was measured with a pH meter (METTLER TOLEDO), and only the plasma with a pH between 7.4 and 8 was used for the experiment. The plasma was placed on an ice bath for later use.
(§8) 4. Preparation of the Dosing Solution:
(§9) 1) 125 μg/mL test compound solution: 5 μL of 5 mg/mL test compound (see step 2) was added to 195 μL DMSO; 500 μM control solution: 20 mM control stock solution (see step 2) was added to 195 μL DMSO.
(§10) 2) 0.5% BSA phosphate buffer solution: 0.05 g of BSA was added to 10 mL of phosphate buffer (see step 1).
(§11) 3) 5 μg/mL test compound dosing solution: 40 μL of 125 μg/mL test compound solution was added to 960 μL of 0.5% BSA phosphate buffer solution, shaken and mixed evenly, and the dosing solution was placed in a 37° C. water bath and preheated for 5 minutes.
(§12) 20 μM control dosing solution: 40 μL of 500 μM control solution was added to 960 μL of 0.5% BSA phosphate buffer solution, shaken and mixed evenly, and the dosing solution was placed in a 37° C. water bath and preheated for 5 minutes.
(§13) 5. 10 μL of 5 μg/mL test compound and 20 μM control solution were added to the wells of the 96-well plate set at different time points (0 minute, 1 hour, 2 hours and 4 hours). The number of duplicate samples was 3.
(§14) 6. 500 μL of ACN (IS) containing 5% FA was added to the wells set at 0 minute. 90 μL of plasma was then added thereto, mixed evenly, sealed with the film and stored at 4° C. (the number of duplicates was 3).
(§15) 7. 90 μL of plasma was added to the wells set at 1 hour, 2 hours and 4 hours (the number of replicates was 3), followed by timing (the final concentration of the test compound was 500 ng/mL, and that of the control was 2 μM).
(§16) 9. All samples (0 minutes, 1 hour, 2 hours, and 4 hours) at different time points on the 96-well plate were placed on a shaker (IKA, MTS 2/4) and shaken at 600 rpm for 60 minutes. The samples were then centrifuged for 15 minutes on a centrifuge machine (Thermo Multifuge×3R) at 5594×g.
(§17) 10. 150 μL of the supernatant was taken out from the centrifuged sample and sent to LC-MS/MS for analysis (conventional peptide LC-MS/MS analysis).

[3] = Plasma stability, mouse plasma; format: in vitro ADME; details: 37° C., 0-4 hours, LC-MS/MS, "Very long" = no significant degradation found in the test (4 hours)
Protocol: as §1, §2, §3, §4, §5, §6, §7, §8, §9, §10, §11, §12, §13, §14, §15, §16, §17

EC50 ([1]; determination by the method of Effect Embodiment 1, read-out: EC50) | half-life at 500 ng/mL ([3]; read-out: Mouse plasma (T1/2 (h)) (converted)) | Compound | half-life at 500 ng/mL [2] | EC50 [1] | Mouse plasma (T1/2 (h)) ([3]; 500 ng/mL)
0.7 nM | 67.1 h | CCCCCCCCCCCCCCCC(=O)NCCOCCOCCOCCOCCOCCOCCOCCOCCC(=O)NCC(=O)NCC(=O)N[C@H](Cc1ccc(O)cc1)C(=O)N[C@@H](Cc1ccccc1)C(=O)N(C)[C@@H](CC(C)C)C(=O)N1CCC[C@H]1C(=O)N[C@H](CO)C(=O)N[C@@H](CCC(N)=O)C(=O)N[C@@H](Cc1ccccc1)C(=O)N[C@H](C)C(=O)N1Cc2ccccc2C[C@H]1C(=O)N[C@@H](CO)C(=O)O [YW-133, Palm-PEG8-Gly-Gly-(D-Tyr)-Phe-(NMe-Leu)-Pro-(D-Ser)-Gln-Phe-(D-Ala)-Tic-Ser-OH] ({Palmitoyl-PEG8}-GG[dY]F[NMeL]P[dS]QF[dA][Tic]S-OH) | 13.7 h | – | –
– | – | CC(C)C[C@@H](C(=O)N1CSC[C@H]1C(=O)N[C@H](CO)C(=O)N[C@@H](CCC(N)=O)C(=O)N[C@@H](Cc1ccc2ccccc2c1)C(=O)N[C@H](C)C(=O)N1Cc2ccccc2C[C@H]1C(=O)N[C@@H](CO)C(=O)O)N(C)C(=O)[C@H](Cc1ccccc1)NC(=O)[C@H](N)Cc1ccc(O)cc1 [YW-122, (D-Tyr)-Phe-(NMe-Leu)-Thz-(D-Ser)-Gln-2Nal-(D-Ala)-Tic-Ser-OH] (H-[dY]F[NMeL][Thz][dS]Q[2Nal][dA][Tic]S-OH) | 79.6 h | 0.6 nM | Very long
